Assay results taken from patent publication US12084411B2, “Hinokitiol analogues, methods of preparing and pharmaceutical compositions thereof” (The Board of Trustees of the University of Illinois, priority 2018, dated 2024).

How the values were obtained:
[1] = test system: DMT1-deficient Caco-2 monolayers; assay: 55Fe uptake and transport in DMT1-deficient Caco-2 monolayers; conditions: for iron uptake and transepithelial transport: apical addition (hinokitiol 500 nM), pH 5.5 apical, pH 7.4 basolateral, four hours
Description: Media from differentiated Caco-2 monolayers (P25-50, 21-28 days post seeding) grown on PET inserts in 6-well plates was aspirated, and monolayers were rinsed with PBS. 2 mL of basolateral fluid (serum-free DMEM at pH=7.4 in 10 mM HEPES buffer) was added to the basolateralside, and 1 mL of apical fluid (serum-free DMEM at pH=5.5 in 10 mM MES buffer) containing 200 nM ^55FeCl3 or the indicated concentration of FeCl3 and either DMSO vehicle, hinokitiol, C2deOHino, deferiprone, PIH, SIH, or deferoxamine mesylate (Sigma D9533) (500 nM Hino/C2deOHino for DMT1-deficiency, 1 μM Hino/C2deOHino for FPN1-deficiency, or indicated concentration of small molecule from a 1000X stock in DMSO) was added to the apical side via addition on the wall of the membrane insert without disrupting the cell monolayer. The monolayers were then incubated for four hours at 37° C. unless otherwise noted. A 100 μL aliquot of the basolateral fluid was removed, diluted in scintillation cocktail, and radioactivity was determined on a liquid scintillation counter to quantify relative amounts of ^55Fe transport. To determine intracellular ^55Fe, the basolateral and apical media was removed, and the monolayer was rinsed with PBS (×2). The cells were then lysed with 500 μL of 200 mM NaOH with nutator mixing overnight, and radioactivity was determined on a liquid scintillation counter after diluting the cell lysate in scintillation cocktail. All values were normalized to shControl monolayers unless otherwise noted. Absolute iron levels were determined through calibration of ^55Fe radioactivity levels with known standards and average mg of protein per membrane was determined by protein lysis with RIPA buffer containing protease inhibitors and quantified through a BCA kit according to manufacturer instructions.
TEER determination in Caco-2 monolayers (FIG. 12D and FIG. 14L) To determine Caco-2 membrane integrity, transport studies were performed as described above, except for the use of non-radioactive iron instead of ^55FeCl3. At the indicated time points, the transepithelial electrical resistance (TEER) was determined with an epithelial voltohmmeter and compared to the TEER of the membrane at the beginning of the experiment.

[2] = test system: Mfrn1-deficient MEL cells; assay: Hemoglobinization of Mfrn1-deficient MEL cells; type: cell-based, mouse; conditions: 1 μM
Description: (§1) Differentiation of MEL Cells with DMSO (FIG. 3D) To perform differentiation experiments with MEL cells (39), the indicated MEL cells were diluted to 1×10^5 cells/mL in MEL Complete media containing 10 μM iron (III) citrate and 2% DMSO in the absence or presence of 1 μM hinokitiol or C2deOHino (added from 1000X stock in DMSO) in 12-well plates. Cells were then incubated at 37° C. for 72 hours unless otherwise noted.
Hemoglobinized MEL cells were quantified three days after DMSO induction through o-dianisidine staining similar to previously reported (74). Cells were centrifuged three days after induction and rinsed with PBS. […] The number of stained cells were then quantified via ImageJ analysis and compared to the number of total cells in each image. […]
MEL cells were induced for differentiation as described above and incubated at 37° C. for 70 hours before addition of a saturated iron-transferrin (^55Fe2Tf) solution (40 nM final concentration from a 10 μM ^55Fe2Tf stock). […] After completion, the cells were counted with a hemocytometer, the media was removed after centrifugation, the cells were rinsed with PBS (×3), and the cell suspension was diluted in scintillation cocktail and radioactivity was determined. […] After completion, the cells were counted with a hemocytometer, the media was removed after centrifugation, and the cells were rinsed with PBS (×3). […]

DMT1-deficient MEL cells = assay: Differentiation and hemoglobinization of DMT1-deficient MEL cells; type: cell-based, mouse; conditions: 1 μM, three days
Description: as §1
Hemoglobinized MEL cells were quantified three days after DMSO induction through o-dianisidine staining similar to previously reported (74). Cells were centrifuged three days after induction and rinsed with PBS. The cells were then suspended in a solution containing 7.5 mM o-dianisidine, 900 mM H2O2, and 150 mM acetic acid in water at ˜1×10^6 cells/mL. Cells were then imaged on an AXIO Zoom V16 microscope to obtain color images. The number of stained cells were then quantified via ImageJ analysis and compared to the number of total cells in each image. To determine that hinokitiol requires DMSO induction for hemoglobinization, 2% DMSO was not added at the beginning of the experiment before a 72-hour incubation and o-dianisidine staining.
MEL cells were induced for differentiation as described above and incubated at 37° C. for 70 hours before addition of a saturated iron-transferrin (^55Fe2Tf) solution (40 nM final concentration from a 10 μM ^55Fe2Tf stock). The cells were incubated for an additional two hours. After completion, the cells were counted with a hemocytometer, the media was removed after centrifugation, the cells were rinsed with PBS (×3), and the cell suspension was diluted in scintillation cocktail and radioactivity was determined. […] The cells were incubated for an additional eight hours. After completion, the cells were counted with a hemocytometer, the media was removed after centrifugation, and the cells were rinsed with PBS (×3). The cells were then lysed with RIPA buffer, diluted with water, and heme was extracted using a 3:1 ethyl acetate:acetic acid solution. An aliquot of the organic extract was diluted in scintillation cocktail and radioactivity was determined. Radioactive levels were normalized per cell (counted by hemocytometer) relative to wild type (DS19) levels.
MEL cells were induced for differentiation as described above and incubated at 37° C. for 72 hours. After completion, the cells were counted with a hemocytometer, the media was removed after centrifugation, and cells were rinsed with PBS (×2). The cells were then lysed through repeated freeze/thaw cycles with water, and hemoglobin levels per 10^6 cells were determined as previously described (77) by determining the OD415 after centrifugation. Globin levels by western blot were determined after differentiation as described above. After incubation for 72 hours, cells were lysed and globin levels were determined by western blot as described above.

[3] = test system: DMT1-deficient Belgrade (b/b) rats; assay: 59Fe gut absorption in Belgrade rats; type: in vivo; conditions: 1.5 mg/kg, oral gavage
Description: ^59Fe gastrointestinal absorption of iron in 3-5-month-old b/b rats was characterized similar to the procedure described above in the presence of either 6 mM hinokitiol or 6 mM C2deOHino. To compare with the rate of normal iron uptake, age-matched sibling control (+/+ or +/b) Belgrade rats were tested by the same procedure except that ^59Fe was administered without small molecule. Blood (50 μL) was taken from the tail vein at 15, 30, 60, 120, 180, 240, and 360 minutes post administration. Radioactivity was quantified by gamma counting and calculated as the percentage of gavaged dose (±SEM). Animals were humanely euthanized at 6 hours.

fet3Δftr1Δ yeast = assay: Fe3+ uptake assay in yeast; type: cell-based, Saccharomyces cerevisiae
Description: Iron (III) uptake into wild type and fet3Δftr1Δ yeast was adapted from Kosman and coworkers (56). Overnight yeast cultures were repeatedly centrifuged and rinsed with water. The cell pellet was resuspended in MilliQ water, and diluted in SD media without FeCl3. The cells were incubated at 30° C. for 3 hours, centrifuged and rinsed with water twice. The cells were then suspended to 3×10^7 cells/mL in SD media containing 50 mM sodium citrate and 2% glucose. Hinokitiol or C2deOHino (from 40X stocks in DMSO) was added to a final concentration of 100 μM before ^55FeCl3 ([…]) was added to the yeast suspensions. The suspension was continuously homogenized before aliquots were taken and diluted with 10 mL of room temperature water. Cells were then collected via vacuum filtration through a 0.45 μm nitrocellulose filter (Millipore HAWP), and rinsed with room temperature water (×5 of 100 mL). The filters were then transferred to a scintillation vial containing 3 mL of scintillation cocktail for measuring radioactivity using a liquid scintillation counter.

SMILES | monolayer integrity (TEER) ([1]; 500 nM) | iron uptake and transepithelial transport [1] | hemoglobinization [2] | 55Fe uptake (DMT1-deficient MEL cells) | 55Fe-heme incorporation (DMT1-deficient MEL cells) | hemoglobinization (DMT1-deficient MEL cells) | gut iron absorption ([3]; after one hour) | 55Fe uptake into fet3Δftr1Δ yeast (fet3Δftr1Δ yeast) | reduction in 59Fe absorption relative to sibling controls (+/+ or +/b) [3]
CC(C)c1cccc(=O)c(O)c1 [hinokitiol] | did not disrupt monolayer integrity | restored uptake and transport | restored hemoglobinization | restored | restored | restored | increased ^55Fe absorption back to control levels | dose-dependent increase in ^55Fe uptake from 5 to 100 μM | 
CC(C)c1cccc(=O)cc1 [C2deOHino, C2-deoxy hinokitiol] |  | did not promote both uptake and transport | no effect | no effect | no effect | no effect |  | no uptake up to 100 μM | 2 fold
